Reference: PMC11229689, “In Vitro Selection of Macrocyclic L-α/D-α/β/γ-Hybrid Peptides Targeting IFN-γ/IFNGR1 Protein–Protein Interaction” (Journal of the American Chemical Society, 2024)
Like-named read-outs stand apart in the source and are kept apart here. *1 amine or outer side, *2 acyl side, *3 side chain or, on linkers, in order; H or OH if unused. Where a SMILES comes first, the peptide text is derived from it. Bridges are numbered along the chain shown (N, C = ends). [ ]: non-standard residue; d: D form. Acbc(trans-1,3) = O=C([C@H]1C[C@H](N[*:1])C1)[*:2]; Acbc(cis-1,3) = O=C([C@H]1C[C@@H](N[*:1])C1)[*:2]; X1 = O=C([C@@H]1CCC[C@@H]1N[*:1])[*:2]

Tests used:
Fc-tagged human IFNGR1 = target: T1, Fc-tagged human IFNGR1 (Homo sapiens, UniProt P15260); experiment: Binding kinetics and affinity to IFNGR1 by surface plasmon resonance (SPR); conditions: for kon: read-out: ka
T1 construct: purchased ACROBiosystems
T1 sequence (P15260 18-489): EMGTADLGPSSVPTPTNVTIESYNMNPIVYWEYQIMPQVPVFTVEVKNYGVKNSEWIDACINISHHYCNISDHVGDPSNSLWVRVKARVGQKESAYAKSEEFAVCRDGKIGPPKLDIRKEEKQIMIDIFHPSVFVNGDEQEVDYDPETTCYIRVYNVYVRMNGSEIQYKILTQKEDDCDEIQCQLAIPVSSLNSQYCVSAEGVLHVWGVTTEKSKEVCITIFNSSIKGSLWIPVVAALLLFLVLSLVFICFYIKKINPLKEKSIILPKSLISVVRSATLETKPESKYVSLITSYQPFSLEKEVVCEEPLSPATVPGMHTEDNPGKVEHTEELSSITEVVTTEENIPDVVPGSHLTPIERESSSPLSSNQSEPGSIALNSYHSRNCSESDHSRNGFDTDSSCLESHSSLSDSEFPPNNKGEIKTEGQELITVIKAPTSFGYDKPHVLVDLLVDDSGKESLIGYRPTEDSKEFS
Protocol: (§1) Binding affinities of IA1 and IA2 against IFNGR1 were evaluated by surface plasmon resonance (SPR) (Table 1 and SI Figure S6A). […] To investigate the contribution of the N-terminal [yVPβ^1RR] motif and β^1 residue in IA1, three scrambled peptides IA1s1–3 and a variant IA1β^14A were synthesized and evaluated. […] We next evaluated inhibitory activities of IA1 and IA2 against the ligand–receptor PPI between IFN-γ and IFNGR1 using AlphaLISA (Table 1 and SI Figure S7).[37] […] We also determined the serum half-lives of IA1 and IA2, considering peptidase resistance as an important factor for therapeutic peptides.[24] A sample peptide and a peptidase-resistant internal standard peptide were coincubated in human serum at 37 °C, and the relative amount of the remaining sample peptide was estimated by LC/MS. […]
Evaluation of binding affinity of peptides by surface plasmon resonance The binding affinities of selected peptides and IFNGR1 were analyzed by surface plasmon resonance (SPR) using a Biacore T200 instrument (Cytiva) at 25 °C with the following running buffer: 10 mM Tris-HCl (pH 8.0), 150 mM NaCl, 0.05% (v/v) Tween 20 , and 0.1% (v/v) DMSO. Fc-tagged IFNGR1 was immobilized on a series S sensor chip protein G (Cytiva) to a surface density of 1,200–1,600 response units following the immobilization protocols provided by Cytiva. The kinetic constants were determined by a single-cycle kinetics method by the injection of five different concentrations (twofold dilution series) of each peptide at a flow rate of 30 μL/min. The resulting sensorgrams were fitted to the standard 1:1 interaction model and analyzed using Biacore evaluation software. […]

[1] = Serum stability assay (LC/MS); type: in vitro ADME, human; conditions: human serum, 37 °C, LC/MS, relative to internal standard peptide, n = 3, read-out: half-life in human serum (t1/2) (converted)
Protocol: as §1
10–200 μM synthetic peptide and 5 μM serum-resistant internal standard peptide consisting only of D-amino acids (NH2-PEG5-wstndwstnd-PEG5-CONH2)3 were mixed and incubated in human serum (Cosmo Bio, 12181201) at 37 °C for up to 120 h. At each time point, 4 μL of the mixture was removed and quenched by adding 12 μl methanol. Following centrifugation (15,000 g, 4 °C, 5 min), 10 μL of the supernatant was mixed with 40 μl of 1% (v/v) TFA. Following centrifugation (15,000 g, 4 °C, 5 min), the supernatant was collected for LC/MS analysis, which used a reverse-phase column (ACQUITY UPLC BEH C18, 1.7 μm, 2.1 × 150 mm; Waters) and a Xevo G2-XS QTof system (Waters) with a linear gradient from 1% B to 61% B. Buffer A was water with 0.1% (v/v) formic acid; buffer B was acetonitrile with 0.1% (v/v) formic acid. The percentages of remaining peptides were determined by the peak area integration of the chromatograms. For tandem mass spectrometry, MS/MS spectra were acquired with a 0.2 s scan time, with 10−30 eV collision energy. The obtained LC/MS data was analyzed using MassLynx 4.1 (Waters). […]

[2] = SPR, 25 °C, 1:1 binding model, read-out: KD
[3] = SPR, 25 °C, single-cycle kinetics, 1:1 binding model

Row | Structure (SMILES) | Kd (Fc-tagged human IFNGR1; [2]) | kon (Fc-tagged human IFNGR1; [3]) | half-life ([1]; human) | Kd (Fc-tagged human IFNGR1) | kon (Fc-tagged human IFNGR1) | half-life [1]
1 | CC(C)[C@@H]1NC(=O)[C@@H](Cc2ccc(O)cc2)NC(=O)CSC[C@H](C(N)=O)NC(=O)[C@H](CC(N)=O)NC(=O)[C@H](Cc2c[nH]cn2)NC(=O)[C@H](CCCNC(=N)N)NC(=O)[C@H]2C[C@@H](C2)NC(=O)[C@H]([C@@H](C)O)NC(=O)[C@H](Cc2c[nH]cn2)NC(=O)[C@@H]2CCCN2C(=O)[C@H](CO)NC(=O)[C@H](CCCNC(=N)N)NC(=O)[C@H](CCCNC(=N)N)NC(=O)[C@H](C)NC(=O)[C@@H]2CCCN2C1=O [IB5β^14A, ^AcyVPA RRSPHTγ^2RHNc-NH2] ({CH2CO}-[dY]VPARRSPHT[Acbc(trans-1,3)]RHN[dC]-NH2; thioether N-15) | > 10 µM | – | 24.6 ± 1.8 min | – | – | –
2 | CC(C)[C@@H]1NC(=O)[C@@H](Cc2ccc(O)cc2)NC(=O)CSC[C@H](C(N)=O)NC(=O)[C@H](CC(N)=O)NC(=O)[C@H](CO)NC(=O)[C@H](CCCNC(=N)N)NC(=O)[C@H]2C[C@H](C2)NC(=O)[C@H](Cc2c[nH]cn2)NC(=O)[C@H](CC(N)=O)NC(=O)[C@H]([C@@H](C)O)NC(=O)[C@H](Cc2c[nH]cn2)NC(=O)[C@H](CCCNC(=N)N)NC(=O)[C@H](CCCNC(=N)N)NC(=O)[C@H](C)NC(=O)[C@@H]2CCCN2C1=O [IA1β^14A, ^AcyVPA RRHTNHγ^1RSNc-NH2] ({CH2CO}-[dY]VPARRHTNH[Acbc(cis-1,3)]RSN[dC]-NH2; thioether N-15) | > 10 µM | – | 42.6 ± 6 min | – | – | –
3 | CC(C)[C@@H]1NC(=O)[C@@H](Cc2ccc(O)cc2)NC(=O)CSC[C@H](C(N)=O)NC(=O)[C@H]([C@@H](C)O)NC(=O)[C@H](CC(N)=O)NC(=O)[C@H](Cc2c[nH]cn2)NC(=O)[C@H](CC(N)=O)NC(=O)[C@H](CCCNC(=N)N)NC(=O)[C@H](Cc2c[nH]cn2)NC(=O)[C@H]2C[C@H](C2)NC(=O)[C@H](CO)NC(=O)[C@H](CCCNC(=N)N)NC(=O)[C@H](CCCNC(=N)N)NC(=O)[C@@H]2CCC[C@@H]2NC(=O)[C@@H]2CCCN2C1=O [IA1s2, ^AcyVPβ^1RRSγ^1HRNHNTc-NH2] ({CH2CO}-[dY]VP[X1]RRS[Acbc(cis-1,3)]HRNHNT[dC]-NH2; thioether N-15) | 2.2 ± 0.2 µM | 2200 ± 200 M⁻¹ s⁻¹ | – | – | – | –
4 | CC(C)[C@@H]1NC(=O)[C@@H]2CCC[C@@H]2NC(=O)[C@H](CCCNC(=N)N)NC(=O)[C@H](Cc2c[nH]cn2)NC(=O)[C@@H]2CCCN2C(=O)[C@H](CCCNC(=N)N)NC(=O)[C@H]2C[C@H](C2)NC(=O)[C@H]([C@@H](C)O)NC(=O)[C@H](CCCNC(=N)N)NC(=O)[C@H](CC(N)=O)NC(=O)[C@H](CO)NC(=O)[C@@H](Cc2ccc(O)cc2)NC(=O)CSC[C@H](C(N)=O)NC(=O)[C@H](Cc2c[nH]cn2)NC(=O)[C@H](CC(N)=O)NC1=O [IA1s1, ^AcySNRTγ^1RPHRβ^1VNHc-NH2] ({CH2CO}-[dY]SNRT[Acbc(cis-1,3)]RPHR[X1]VNH[dC]-NH2; thioether N-15) | > 10 µM | – | – | – | – | –
5 | CC(C)[C@@H]1NC(=O)[C@@H](Cc2ccc(O)cc2)NC(=O)CSC[C@H](C(N)=O)NC(=O)[C@H](CC(N)=O)NC(=O)[C@H]2C[C@@H](C2)NC(=O)[C@H](CCCNC(=N)N)NC(=O)[C@@H]2CCCN2C(=O)[C@H]([C@@H](C)O)NC(=O)[C@H](CCCNC(=N)N)NC(=O)[C@H](CCCNC(=N)N)NC(=O)[C@H](CO)NC(=O)[C@H](CCCNC(=N)N)NC(=O)[C@H](CCCNC(=N)N)NC(=O)[C@H](C)NC(=O)[C@@H]2CCCN2C1=O [IB4β^14A, ^AcyVPA RRSRRTPRγ^2Nc-NH2] ({CH2CO}-[dY]VPARRSRRTPR[Acbc(trans-1,3)]N[dC]-NH2; thioether N-15) | – | – | – | 0.42 ± 0.12 µM | 8900 ± 2100 M⁻¹ s⁻¹ | 30 ± 1.8 min

Further lines, with some results ahead:

Row | Kd (Fc-tagged human IFNGR1; [2]) | kon (Fc-tagged human IFNGR1; [3]) | half-life ([1]; human) | Structure (SMILES) | Kd (Fc-tagged human IFNGR1) | kon (Fc-tagged human IFNGR1) | half-life [1]
6 | > 10 µM | – | – | CC(C)[C@@H]1NC(=O)[C@H](CCCNC(=N)N)NC(=O)[C@@H]2CCC[C@@H]2NC(=O)[C@@H](Cc2ccc(O)cc2)NC(=O)CSC[C@H](C(N)=O)NC(=O)[C@H](CC(N)=O)NC(=O)[C@H](CO)NC(=O)[C@H](CCCNC(=N)N)NC(=O)[C@H]2C[C@H](C2)NC(=O)[C@H](Cc2c[nH]cn2)NC(=O)[C@H](CC(N)=O)NC(=O)[C@H]([C@@H](C)O)NC(=O)[C@H](Cc2c[nH]cn2)NC(=O)[C@H](CCCNC(=N)N)NC(=O)[C@@H]2CCCN2C1=O [IA1s3, ^Acyβ^1RVPRHTNHγ^1RSNc-NH2] ({CH2CO}-[dY][X1]RVPRHTNH[Acbc(cis-1,3)]RSN[dC]-NH2; thioether N-15) | – | – | –
7 | 1.4 ± 0.2 µM | 3600 ± 100 M⁻¹ s⁻¹ | 156 ± 6 min | CC(C)[C@@H]1NC(=O)[C@H](Cc2ccc(O)cc2)NC(=O)CSC[C@@H](C(N)=O)NC(=O)[C@H](CC(N)=O)NC(=O)[C@H](CO)NC(=O)[C@H](CCCNC(=N)N)NC(=O)[C@H]2C[C@H](C2)NC(=O)[C@H](Cc2c[nH]cn2)NC(=O)[C@H](CC(N)=O)NC(=O)[C@H]([C@@H](C)O)NC(=O)[C@H](Cc2c[nH]cn2)NC(=O)[C@H](CCCNC(=N)N)NC(=O)[C@H](CCCNC(=N)N)NC(=O)[C@@H]2CCC[C@@H]2NC(=O)[C@@H]2CCCN2C1=O [IA1YC, ^AcYVPβ^1RRHTNHγ^1RSNC-NH2] ({CH2CO}-YVP[X1]RRHTNH[Acbc(cis-1,3)]RSNC-NH2; thioether N-15) | – | – | –
8 | 1.7 ± 0.2 µM | 2200 ± 300 M⁻¹ s⁻¹ | – | CC(C)[C@@H]1NC(=O)[C@H](Cc2ccc(O)cc2)NC(=O)CSC[C@@H](C(N)=O)NC(=O)[C@H](CCCNC(=N)N)NC(=O)[C@H](CO)NC(=O)[C@H](CCCNC(=N)N)NC(=O)[C@H](Cc2c[nH]cn2)NC(=O)CNC(=O)[C@H]2C[C@H](C2)NC(=O)[C@H](Cc2c[nH]cn2)NC(=O)[C@H](CC(N)=O)NC(=O)[C@H](CCCNC(=N)N)NC(=O)[C@H](CCCNC(=N)N)NC(=O)[C@@H]2CCC[C@@H]2NC(=O)[C@H](C)NC1=O [IB1YC, ^AcYVAβ^1RRNHγ^1GHRSRC-NH2] ({CH2CO}-YVA[X1]RRNH[Acbc(cis-1,3)]GHRSRC-NH2; thioether N-15) | – | – | –
9 | 0.045 ± 0.005 µM | 58000 ± 11000 M⁻¹ s⁻¹ | 55.2 ± 6.6 min | CC(C)[C@@H]1NC(=O)[C@H](Cc2ccc(O)cc2)NC(=O)CSC[C@@H](C(N)=O)NC(=O)[C@H](CC(N)=O)NC(=O)[C@H]2C[C@@H](C2)NC(=O)[C@H](CCCNC(=N)N)NC(=O)[C@@H]2CCCN2C(=O)[C@H]([C@@H](C)O)NC(=O)[C@H](CCCNC(=N)N)NC(=O)[C@H](CCCNC(=N)N)NC(=O)[C@H](CO)NC(=O)[C@H](CCCNC(=N)N)NC(=O)[C@H](CCCNC(=N)N)NC(=O)[C@@H]2CCC[C@@H]2NC(=O)[C@@H]2CCCN2C1=O [IB4YC, ^AcYVPβ^1RRSRRTPRγ^2NC-NH2] ({CH2CO}-YVP[X1]RRSRRTPR[Acbc(trans-1,3)]NC-NH2; thioether N-15) | – | – | –
10 | 1.9 ± 0.1 µM | 16000 ± 1000 M⁻¹ s⁻¹ | 840 ± 120 min | CC(C)[C@@H]1NC(=O)[C@H](Cc2ccc(O)cc2)NC(=O)CSC[C@@H](C(N)=O)NC(=O)[C@H](CC(N)=O)NC(=O)[C@H](Cc2c[nH]cn2)NC(=O)[C@H](CCCNC(=N)N)NC(=O)[C@H]2C[C@@H](C2)NC(=O)[C@H]([C@@H](C)O)NC(=O)[C@H](Cc2c[nH]cn2)NC(=O)[C@@H]2CCCN2C(=O)[C@H](CO)NC(=O)[C@H](CCCNC(=N)N)NC(=O)[C@H](CCCNC(=N)N)NC(=O)[C@@H]2CCC[C@@H]2NC(=O)[C@@H]2CCCN2C1=O [IB5YC, ^AcYVPβ^1RRSPHTγ^2RHNC-NH2] ({CH2CO}-YVP[X1]RRSPHT[Acbc(trans-1,3)]RHNC-NH2; thioether N-15) | – | – | –
